Data published in PubChem BioAssay AID2060910 (Molecular Pharmacology Branch, DTP, NCI, 2025).

System: 242566-281-R-J2-PDC complex spheroid viability
Assay: Anticancer human tumor 242566-281-R-J2-PDC patient-derived pancreatic carcinoma cell line growth inhibition [RAS]
Details: for viability, T/C: stronger effect = lower value; active means viability on the fitted dose curve at most 10% of control; inactive means the rest
Outline: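 Agents were tested in combination matrices in half-log decrements from a top concentration at or near clinical Cmax (10 microM if undetermined). Targets were multi-cell spheroids of tumour lines plus HUVEC and MSC stromal cells.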

[1] = curve of first compound, second compound 0.0316 µM
[2] = curve of first compound, second compound 0.1 µM
[3] = curve of first compound, second compound 0.316 µM
[4] = curve of first compound, second compound 1 µM
[5] = second compound 0.0316 µM, first compound 0.0316 µM
[6] = second compound 0.0316 µM, first compound 0.1 µM
[7] = second compound 0.0316 µM, first compound 0.316 µM
[8] = second compound 0.0316 µM, first compound 1 µM
[9] = second compound 0.0316 µM, first compound 3.16 µM
[10] = second compound 0.0316 µM, first compound 10 µM
[11] = second compound 0.1 µM, first compound 0.0316 µM
[12] = second compound 0.1 µM, first compound 0.1 µM
[13] = second compound 0.1 µM, first compound 0.316 µM
[14] = second compound 0.1 µM, first compound 1 µM
[15] = second compound 0.1 µM, first compound 3.16 µM
[16] = second compound 0.1 µM, first compound 10 µM
[17] = second compound 0.316 µM, first compound 0.0316 µM
[18] = second compound 0.316 µM, first compound 0.1 µM
[19] = second compound 0.316 µM, first compound 0.316 µM
[20] = second compound 0.316 µM, first compound 1 µM
[21] = second compound 0.316 µM, first compound 3.16 µM
[22] = second compound 0.316 µM, first compound 10 µM
[23] = second compound 1 µM, first compound 0.0316 µM
[24] = second compound 1 µM, first compound 0.1 µM
[25] = second compound 1 µM, first compound 0.316 µM
[26] = second compound 1 µM, first compound 1 µM
[27] = second compound 1 µM, first compound 3.16 µM
[28] = second compound 1 µM, first compound 10 µM
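Further: spheroids exposed to compound for 7 days before readout.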
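Wherever viability, T/C is given: 100% = DMSO vehicle control wells.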

CC(C)NCC(C(=O)N1CCN(c2ncnc3c2C(C)CC3O)CC1)c1ccc(Cl)cc1 (stereo unspecified) + C=CC(=O)N1CCN(c2nc(OCC3CCCN3C)nc3c(F)c(-c4nc(N)cc(C)c4C(F)(F)F)c(Cl)cc23)C(C)C1
inactive: viability, T/C (second compound 0.00316 µM, first compound 0.0316 µM) 115% | viability, T/C (second compound 0.00316 µM, first compound 0.1 µM) 99.9% | viability, T/C (second compound 0.00316 µM, first compound 0.316 µM) 106% | viability, T/C (second compound 0.00316 µM, first compound 1 µM) 90.6% | viability, T/C (second compound 0.00316 µM, first compound 3.16 µM) 81.9% | viability, T/C (second compound 0.00316 µM, first compound 10 µM) 84.9% | viability, T/C (second compound 0.01 µM, first compound 0.0316 µM) 100% | viability, T/C (second compound 0.01 µM, first compound 0.1 µM) 122% | viability, T/C (second compound 0.01 µM, first compound 0.316 µM) 102% | viability, T/C (second compound 0.01 µM, first compound 1 µM) 98.7% | viability, T/C (second compound 0.01 µM, first compound 3.16 µM) 91.2% | viability, T/C (second compound 0.01 µM, first compound 10 µM) 89.3% | viability, T/C [5] 107% | viability, T/C [6] 117% | viability, T/C [7] 90.9% | viability, T/C [8] 93.1% | viability, T/C [9] 90.9% | viability, T/C [10] 86.2% | viability, T/C [11] 91.8% | viability, T/C [12] 104% | viability, T/C [13] 95.1% | viability, T/C [14] 89.1% | viability, T/C [15] 87.5% | viability, T/C [16] 77.7% | viability, T/C [17] 98.6% | viability, T/C [18] 114% | viability, T/C [19] 97.5% | viability, T/C [20] 88% | viability, T/C [21] 88% | viability, T/C [22] 81.2% | viability, T/C [23] 99.6% | viability, T/C [24] 133% | viability, T/C [25] 107% | viability, T/C [26] 101% | viability, T/C [27] 77.6% | viability, T/C [28] 82.9%
> 10 µM: IC50 (curve of first compound, second compound 0.00316 µM) | IC50 (curve of first compound, second compound 0.01 µM) | IC50 [1] | IC50 [2] | IC50 [3] | IC50 [4]

C=CC(=O)Nc1cc(Nc2nccc(-c3cn(C)c4ccccc34)n2)c(OC)cc1N(C)CCN(C)C + CCn1c(-c2cccnc2C(C)OC)c2c3cc(ccc31)N1CCOC(CC(NC(=O)C(C(C)C)N(C)C(=O)C3(F)CCN(C(=O)C#CC(C)(C)N(C)C)CC3)C(=O)N3CCCC(N3)C(=O)OCC(C)(C)C2)C1
0.983 µM: IC50 (curve of first compound, second compound 0.0949 µM)
inactive: viability, T/C (second compound 0.000949 µM, first compound 0.00316 µM) 87.8% | viability, T/C (second compound 0.000949 µM, first compound 0.01 µM) 107% | viability, T/C (second compound 0.000949 µM, first compound 0.0316 µM) 82.5% | viability, T/C (second compound 0.000949 µM, first compound 0.1 µM) 91% | viability, T/C (second compound 0.000949 µM, first compound 0.316 µM) 86.7% | viability, T/C (second compound 0.000949 µM, first compound 1 µM) 50.3% | viability, T/C (second compound 0.003 µM, first compound 0.00316 µM) 131% | viability, T/C (second compound 0.003 µM, first compound 0.01 µM) 95% | viability, T/C (second compound 0.003 µM, first compound 0.0316 µM) 92.2% | viability, T/C (second compound 0.003 µM, first compound 0.1 µM) 84.3% | viability, T/C (second compound 0.003 µM, first compound 0.316 µM) 89.8% | viability, T/C (second compound 0.003 µM, first compound 1 µM) 47.2% | viability, T/C (second compound 0.00949 µM, first compound 0.00316 µM) 119% | viability, T/C (second compound 0.00949 µM, first compound 0.01 µM) 95.8% | viability, T/C (second compound 0.00949 µM, first compound 0.0316 µM) 82.8% | viability, T/C (second compound 0.00949 µM, first compound 0.1 µM) 102% | viability, T/C (second compound 0.00949 µM, first compound 0.316 µM) 77.4% | viability, T/C (second compound 0.00949 µM, first compound 1 µM) 51.1% | viability, T/C (second compound 0.03 µM, first compound 0.00316 µM) 97.6% | viability, T/C (second compound 0.03 µM, first compound 0.01 µM) 95.3% | viability, T/C (second compound 0.03 µM, first compound 0.0316 µM) 99.1% | viability, T/C (second compound 0.03 µM, first compound 0.1 µM) 93.6% | viability, T/C (second compound 0.03 µM, first compound 0.316 µM) 66% | viability, T/C (second compound 0.03 µM, first compound 1 µM) 52.2% | viability, T/C (second compound 0.0949 µM, first compound 0.00316 µM) 98.5% | viability, T/C (second compound 0.0949 µM, first compound 0.01 µM) 98.7% | viability, T/C (second compound 0.0949 µM, first compound 0.0316 µM) 99.2% | viability, T/C (second compound 0.0949 µM, first compound 0.1 µM) 83.5% | viability, T/C (second compound 0.0949 µM, first compound 0.316 µM) 61.3% | viability, T/C (second compound 0.0949 µM, first compound 1 µM) 49.5% | viability, T/C (second compound 0.3 µM, first compound 0.00316 µM) 94.9% | viability, T/C (second compound 0.3 µM, first compound 0.01 µM) 86.9% | viability, T/C (second compound 0.3 µM, first compound 0.0316 µM) 78% | viability, T/C (second compound 0.3 µM, first compound 0.1 µM) 70.4% | viability, T/C (second compound 0.3 µM, first compound 0.316 µM) 56.5% | viability, T/C (second compound 0.3 µM, first compound 1 µM) 47.8%
0.754 µM: IC50 (curve of first compound, second compound 0.3 µM)
> 1 µM: IC50 (curve of first compound, second compound 0.000949 µM) | IC50 (curve of first compound, second compound 0.003 µM) | IC50 (curve of first compound, second compound 0.00949 µM) | IC50 (curve of first compound, second compound 0.03 µM)

C[C@@H](NC(=O)c1ncnc(N)c1Cl)c1ncc(C(=O)Nc2cc(C(F)(F)F)c(Cl)cn2)s1 + C#Cc1c(F)ccc2cc(O)cc(-c3ncc4c(N5CC6CCC(C5)N6)nc(OCC56CCCN5CC(F)C6)nc4c3F)c12
> 10 µM: IC50 [1] | IC50 [2] | IC50 [3] | IC50 [4] | IC50 (curve of first compound, second compound 3.16 µM) | IC50 (curve of first compound, second compound 10 µM)
inactive: viability, T/C [5] 93.3% | viability, T/C [6] 136% | viability, T/C [7] 93.4% | viability, T/C [8] 85.8% | viability, T/C [9] 97.9% | viability, T/C [10] 95.3% | viability, T/C [11] 91.3% | viability, T/C [12] 102% | viability, T/C [13] 90.9% | viability, T/C [14] 88.4% | viability, T/C [15] 69.9% | viability, T/C [16] 88.8% | viability, T/C [17] 75.9% | viability, T/C [18] 84.1% | viability, T/C [19] 60.8% | viability, T/C [20] 75.4% | viability, T/C [21] 68.1% | viability, T/C [22] 78.4% | viability, T/C [23] 67.2% | viability, T/C [24] 74.5% | viability, T/C [25] 66.6% | viability, T/C [26] 62.1% | viability, T/C [27] 64.2% | viability, T/C [28] 71.4% | viability, T/C (second compound 3.16 µM, first compound 0.0316 µM) 63.4% | viability, T/C (second compound 3.16 µM, first compound 0.1 µM) 66.7% | viability, T/C (second compound 3.16 µM, first compound 0.316 µM) 63.7% | viability, T/C (second compound 3.16 µM, first compound 1 µM) 53.9% | viability, T/C (second compound 3.16 µM, first compound 3.16 µM) 62.2% | viability, T/C (second compound 3.16 µM, first compound 10 µM) 66.2% | viability, T/C (second compound 10 µM, first compound 0.0316 µM) 63.3% | viability, T/C (second compound 10 µM, first compound 0.1 µM) 64% | viability, T/C (second compound 10 µM, first compound 0.316 µM) 46.3% | viability, T/C (second compound 10 µM, first compound 1 µM) 55% | viability, T/C (second compound 10 µM, first compound 3.16 µM) 60.5% | viability, T/C (second compound 10 µM, first compound 10 µM) 63.8%

C=CC(=O)N1CCN(c2nc(OCC3CCCN3C)nc3c(F)c(-c4nc(N)cc(C)c4C(F)(F)F)c(Cl)cc23)C(C)C1 (stereo unspecified)
> 1 µM: IC50 (compound alone, run of 07/15/2024) | IC50 (curve of compound)
inactive: viability, T/C (compound 0.00316 µM) 102% [middle of 12 runs] | viability, T/C (compound 0.0316 µM) 99.2% [middle of 12 runs] | viability, T/C (compound 0.1 µM) 100% [middle of 12 runs]
